This passage reports IC50 results from patent publication US11963960B2 (Flash Therapeutics, LLC, priority 2020, dated 2024).

Bounds are passed on as bounds.

Sequence of N-terminally GST-tagged HCK (75-526) (P08631 75-526): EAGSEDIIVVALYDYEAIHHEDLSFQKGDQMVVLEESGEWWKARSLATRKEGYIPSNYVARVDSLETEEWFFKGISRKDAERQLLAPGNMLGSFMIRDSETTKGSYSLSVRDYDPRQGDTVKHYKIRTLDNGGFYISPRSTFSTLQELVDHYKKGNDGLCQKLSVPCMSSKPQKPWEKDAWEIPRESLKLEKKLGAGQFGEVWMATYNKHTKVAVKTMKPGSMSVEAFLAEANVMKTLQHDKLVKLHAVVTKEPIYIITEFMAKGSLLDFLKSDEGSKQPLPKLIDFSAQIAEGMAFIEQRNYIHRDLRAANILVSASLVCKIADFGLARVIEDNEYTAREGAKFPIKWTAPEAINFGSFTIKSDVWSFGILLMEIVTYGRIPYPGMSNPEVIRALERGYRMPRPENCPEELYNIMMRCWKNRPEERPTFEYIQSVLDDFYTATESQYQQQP

In the assay the target is N-terminally GST-tagged HCK (75-526) (Homo sapiens (Human), UniProt P08631). Put plainly: HCK Kinase Assay (ProFluor Src-Family Kinase Assay). The following applies: HCK inhibitory activity, 50 μM ATP; read-out: HCK Activity. The assay is classed as biochemical. Summed up:
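ProFluor Src-family format: after the kinase reaction, protease solution was added for 60 min at room temperature (22-25° C), then stabilizer.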
Turning to `COc1cc(-c2nn([C@H]3CC[C@H](N4CCN(C)CC4)CC3)c3ncnc(N)c23)ccc1NC(=O)Nc1cc(C(C)(C)C)on1` [Example 123, 1-(4-(4-amino-1-((trans)-4-(4-methylpiperazin-1-yl)cyclohexyl)-1H-pyrazolo[3,4-d]pyrimidin-3-yl)-2-methoxyphenyl)-3-(5-(tert-butyl)isoxazol-3-yl)urea], the IC50 is under 50 nM.

Consider `CN1CCN([C@H]2CC[C@H](n3cc(-c4ccc(CC(=O)Nc5cc(C(C)(C)C)on5)cc4)c4c(N)ncnc43)CC2)CC1` [Example 124, 2-(4-(4-amino-7-((trans)-4-(4-methylpiperazin-1-yl)cyclohexyl)-7H-pyrrolo[2,3-d]pyrimidin-5-yl)phenyl)-N-(5-(tert-butyl)isoxazol-3-yl)acetamide], for which the IC50 was in the range of 50 to 250 nM.

Consider `[2H]c1c([2H])c([2H])c(Oc2ccc(-c3cn([C@H]4CC[C@H](N5CCN[C@@H](C)C5)CC4)c4ncnc(N)c34)cc2)c([2H])c1[2H]` [Example 125, 7-((trans)-4-((S)-3-methylpiperazin-1-yl)cyclohexyl)-5-(4-pentadeuteriophenoxyphenyl)-7H-pyrrolo[2,3-d]pyrimidin-4-amine], for which the IC50 was under 50 nM.

`C[C@H]1CN([C@H]2CC[C@H](n3cc(-c4ccc(Oc5ccccc5)cc4F)c4c(N)ncnc43)CC2)CCN1` [Example 126, 5-(2-fluoro-4-phenoxyphenyl)-7-((trans)-4-((S)-3-methylpiperazin-1-yl)cyclohexyl)-7H-pyrrolo[2,3-d]pyrimidin-4-amine]: the IC50 is under 50 nM.

With `C[C@H]1CN([C@H]2CC[C@@H](n3nc(-c4ccc(Oc5ccccc5)cc4F)c4c(N)ncnc43)CC2)CCN1` [Example 128, 3-(2-fluoro-4-phenoxyphenyl)-1-((cis)-4-((S)-3-methylpiperazin-1-yl)cyclohexyl)-1H-pyrazolo[3,4-d]pyrimidin-4-amine], the IC50 lay in the range of 50 to 250 nM.

With `C[C@H]1CN([C@H]2CC[C@H](n3cc(-c4ccc(NC(=O)Nc5cc(C(C)(C)C)on5)cc4)c4c(N)ncnc43)CC2)CCN1` [Example 129, 1-(4-(4-amino-7-((trans)-4-((S)-3-methylpiperazin-1-yl)cyclohexyl)-7H-pyrrolo[2,3-d]pyrimidin-5-yl)phenyl)-3-(5-(tert-butyl)isoxazol-3-yl)urea], the IC50 is under 50 nM.

With `C[C@H]1CN([C@H]2CC[C@@H](n3cc(-c4ccc(NC(=O)Nc5cc(C(C)(C)C)on5)cc4)c4c(N)ncnc43)CC2)CCN1` [Example 130, 1-(4-(4-amino-7-((cis)-4-((S)-3-methylpiperazin-1-yl)cyclohexyl)-7H-pyrrolo[2,3-d]pyrimidin-5-yl)phenyl)-3-(5-(tert-butyl)isoxazol-3-yl)urea], the IC50 was 50 to 250 nM.

As to `COc1cc(-c2cn([C@H]3CO[C@H](C4CCN(C)CC4)OC3)c3ncnc(N)c23)ccc1Oc1ccccc1` [Example 131, 5-(3-methoxy-4-phenoxyphenyl)-7-((trans)-2-(1-methylpiperidin-4-yl)-1,3-dioxan-5-yl)-7H-pyrrolo[2,3-d]pyrimidin-4-amine], the IC50 lay within 50 to 250 nM.

In the case of `COc1cc(-c2cn([C@H]3CO[C@@H](C4CCN(C)CC4)OC3)c3ncnc(N)c23)ccc1Oc1ccccc1` [Example 133, 5-(3-methoxy-4-phenoxyphenyl)-7-((cis)-2-(1-methylpiperidin-4-yl)-1,3-dioxan-5-yl)-7H-pyrrolo[2,3-d]pyrimidin-4-amine], the IC50 is under 50 nM.

With `COc1cc(-c2cn([C@H]3CC[C@H](N4CCN[C@@H](C)C4)CC3)c3ncnc(N)c23)ccc1Oc1ccccc1` [Example 134, 5-(3-Methoxy-4-phenoxyphenyl)-7-((trans)-4-((S)-3-methylpiperazin-1-yl)cyclohexyl)-7H-pyrrolo[2,3-d]pyrimidin-4-amine], the IC50 is under 50 nM.

For the compound `CN1CCN(C2CCC(n3nc(-c4ccc(Oc5ccccc5)cc4F)c4c(N)ncnc43)C2)CC1` (stereo not drawn) [Example 135], the IC50 fell in the range of 50 to 250 nM.

As for `Nc1ncnc2c1c(-c1ccc(Oc3ccccc3)cc1)nn2[C@H]1CC[C@H](n2cc(CO)cn2)CC1` [Example 138, (1-((trans)-4-(4-Amino-3-(4-phenoxyphenyl)-1H-pyrazolo[3,4-d]pyrimidin-1-yl)cyclohexyl)-1H-pyrazol-4-yl)methanol], the IC50 was under 50 nM.

Take `Nc1ncnc2c1c(-c1ccc(NC(=O)CCc3ccccc3)cc1)cn2C1CCC(C2OCC(N)CO2)CC1` (stereo not drawn) [Example 139, N-(4-(4-Amino-7-(4-(5-amino-1,3-dioxan-2-yl)cyclohexyl)-7H-pyrrolo[2,3-d]pyrimidin-5-yl)phenyl)-3-phenylpropanamide]: the IC50 is 50 to 250 nM.

Turning to `Nc1ncnc2c1c(-c1ccc(Oc3ccccc3)cc1)cn2C1CCC2(CC1)CCN(CCCCO)CC2` [Example 140, 4-(9-(4-amino-5-(4-phenoxyphenyl)-7H-pyrrolo[2,3-d]pyrimidin-7-yl)-3-azaspiro[5.5]undecan-3-yl)butan-1-ol], the IC50 lay in the range of 50 to 250 nM.

As to `Nc1ncnc2c1c(-c1ccc(Oc3ccccc3)cc1)cn2C1CCC2(CCNCC2)CC1` [Example 141, 5-(4-phenoxyphenyl)-7-(3-azaspiro[5.5]undecan-9-yl)-7H-pyrrolo[2,3-d]pyrimidin-4-amine], the IC50 is under 50 nM.

Turning to `CN1CCC2(CCC(n3cc(-c4ccc(Oc5ccccc5)cc4)c4c(N)ncnc43)CC2)CC1` [Example 142, 7-(3-methyl-3-azaspiro[5.5]undecan-9-yl)-5-(4-phenoxyphenyl)-7H-pyrrolo[2,3-d]pyrimidin-4-amine], the IC50 is under 50 nM.

Take `CN1CCOC(C2CCC(n3cc(-c4ccc(Oc5ccccc5)cc4)c4c(N)ncnc43)CC2)C1=O` (stereo not drawn) [Example 143, 2-(4-(4-Amino-5-(4-phenoxyphenyl)-7H-pyrrolo[2,3-d]pyrimidin-7-yl)cyclohexyl)-4-methylmorpholin-3-one]: the IC50 was in the range of 50 to 250 nM.

With `CN1CCOC(C2CCC(n3cc(-c4ccc(Oc5ccccc5)cc4)c4c(N)ncnc43)CC2)C1` (stereo not drawn) [Example 144, 7-(4-(4-Methylmorpholin-2-yl)cyclohexyl)-5-(4-phenoxyphenyl)-7H-pyrrolo[2,3-d]pyrimidin-4-amine], the IC50 is under 50 nM.

In the case of `CN1CCC([C@H]2OC[C@H](n3cc(-c4ccc(Oc5ccccc5)cc4)c4c(N)ncnc43)CO2)CC1` [Example 145, 7-((2r,5r)-2-(1-Methylpiperidin-4-yl)-1,3-dioxan-5-yl)-5-(4-phenoxyphenyl)-7H-pyrrolo[2,3-d]pyrimidin-4-amine], the IC50 is under 50 nM.

With `CN1CCC([C@H]2OC[C@@H](n3cc(-c4ccc(Oc5ccccc5)cc4)c4c(N)ncnc43)CO2)CC1` [Example 146, 7-((2s,5s)-2-(1-Methylpiperidin-4-yl)-1,3-dioxan-5-yl)-5-(4-phenoxyphenyl)-7H-pyrrolo[2,3-d]pyrimidin-4-amine], the IC50 was under 50 nM.

Consider `CN1CCC(N2CCC(n3nc(-c4ccc(Oc5ccccc5)cc4F)c4c(N)ncnc43)CC2)CC1` [Example 147, 3-(2-fluoro-4-phenoxyphenyl)-1-(1′-methyl-[1,4′-bipiperidin]-4-yl)-1H-pyrazolo[3,4-d]pyrimidin-4-amine], for which the IC50 is under 50 nM.

For the compound `CN1CCC(N2CCC(n3nc(-c4ccc(NC(=O)Nc5cc(C(C)(C)C)on5)cc4)c4c(N)ncnc43)CC2)CC1` [Example 148, 1-(4-(4-Amino-1-(1′-methyl-[1,4′-bipiperidin]-4-yl)-1H-pyrazolo[3,4-d]pyrimidin-3-yl)phenyl)-3-(5-(tert-butyl)isoxazol-3-yl)urea], the IC50 is 50 to 250 nM.

Consider `COc1cc(-c2cn(C3CCN(C4CCN(C)CC4)CC3)c3ncnc(N)c23)ccc1Oc1ccccc1` [Example 149, 5-(3-methoxy-4-phenoxyphenyl)-7-(1′-methyl-[1,4′-bipiperidin]-4-yl)-7H-pyrrolo[2,3-d]pyrimidin-4-amine], for which the IC50 was under 50 nM.

Take `COc1cc(-c2cn(C3CCN(C4CCNCC4)CC3)c3ncnc(N)c23)ccc1Oc1ccccc1` [Example 150, 7-([1,4′-bipiperidin]-4-yl)-5-(3-methoxy-4-phenoxyphenyl)-7H-pyrrolo[2,3-d]pyrimidin-4-amine]: the IC50 was under 50 nM.

Regarding `CN1CCC(N2CCC(n3cc(-c4ccc(NC(=O)Nc5cc(C(C)(C)C)on5)cc4)c4c(N)ncnc43)CC2)CC1` [Example 151, 1-(4-(4-amino-7-(1′-methyl-[1,4′-bipiperidin]-4-yl)-7H-pyrrolo[2,3-d]pyrimidin-5-yl)phenyl)-3-(5-(tert-butyl)isoxazole-3-yl)urea], the IC50 is under 50 nM.

Turning to `CCN1CCC(N2CCC(n3nc(-c4ccc(Oc5ccccc5)cc4F)c4c(N)ncnc43)CC2)CC1` [Example 152, 1-(1′-ethyl-[1,4′-bipiperidin]-4-yl)-3-(2-fluoro-4-phenoxyphenyl)-1H-pyrazolo[3,4-d]pyrimidin-4-amine], the IC50 was under 50 nM.

Turning to `CC(C)N1CCC(N2CCC(n3nc(-c4ccc(Oc5ccccc5)cc4F)c4c(N)ncnc43)CC2)CC1` [Example 153, 3-(2-fluoro-4-phenoxyphenyl)-1-(1′-isopropyl-[1,4′-bipiperidin]-4-yl)-1H-pyrazolo[3,4-d]pyrimidin-4-amine], the IC50 is under 50 nM.

Consider `C[C@H]1CC(N2CCC(n3cc(-c4ccc(Oc5ccccc5)cc4)c4c(N)ncnc43)CC2)CCN1` (stereo partly drawn) [Example 154, 7-((2′S)-2′-methyl-[1,4′-bipiperidin]-4-yl)-5-(4-phenoxyphenyl)-7H-pyrrolo[2,3-d]pyrimidin-4-amine], for which the IC50 was under 50 nM.

Turning to `C[C@H]1CC(N2CCC(n3nc(-c4ccc(Oc5ccccc5)cc4F)c4c(N)ncnc43)CC2)CCN1` (stereo partly drawn) [Example 155, 3-(2-fluoro-4-phenoxyphenyl)-1-((2′S)-2′-methyl-[1,4′-bipiperidin]-4-yl)-1H-pyrazolo[3,4-d]pyrimidin-4-amine], the IC50 was under 50 nM.

As for `C[C@H]1CC(N2CCC(n3cc(-c4ccc(NC(=O)Nc5cc(C(C)(C)C)on5)cc4)c4c(N)ncnc43)CC2)CCN1` (stereo partly drawn) [Example 156, 1-(4-(4-amino-7-((2′S)-2′-methyl-[1,4′-bipiperidin]-4-yl)-7H-pyrrolo[2,3-d]pyrimidin-5-yl)phenyl)-3-(5-(tert-butyl)isoxazol-3-yl)urea], the IC50 was under 50 nM.
